Source: patent publication US7776572B2, “Method for reducing loss of enzyme activity during storage” (Corning Incorporated, priority 1996, dated 2010)

What was measured:
[1] = tested on: IgG; test: IgG/Au staining of coated polystyrene, type of endgroups
Method: Except where indicated, the non-ionic surfactants were applied to the hydrophobic surfaces being tested as a 0.1% (weight/volume) solution in isopropanol. A sufficient amount of coating solution was used to cover the surface being testing with a thin layer of the solution (e.g., 25 μl of the solution per well for a standard 24-well plate). In some cases, the solution was applied to surface by spraying; in others, it was poured onto the surface (into the well). Except where indicated, coated samples were either dried at 70° C. for 30 minutes in an air circulated oven or dried at room temperature overnight to evaporate the isopropanol. Protein binding was determined in some examples using a colloidal gold straining procedure. In accordance with this procedure, colloidal gold becomes electrostatically attached to bound protein and is detected by measuring absorbance at 550 nanometers. Bio-Rad Laboratories' Colloidal Gold Total Protein Stain was used for this purpose, with absorbance being measured with a Cambridge Technologies Plate Reader (No. 7520). The non-ionic surfactants listed in Table 6 were tested for their ability to produce a low binding surface using the techniques described in Materials and Methods. Polystyrene was used as the hydrophobic test surface and IgG/Au staining was used as the readout.

[2] = tested on: BSA protein (Bovine Serum Albumin, Fraction V); test: BSA binding to coated polystyrene 24-well plates at different pH, colloidal gold stain; details: for Absorbance (550 nm) pH = 9.2: BSA 10 μg/ml in 0.10 M NaHCO3 buffer; for Absorbance (550 nm) pH = 7.4: BSA 10 μg/ml in 0.10 M PBS; for Absorbance (550 nm) pH = 4.6: BSA 10 μg/ml in 0.10 M acetate buffer
Method: Polystyrene plates having 24 wells (Corning Costar #9447) were coated as described in Materials and Methods.
BSA protein (Bovine Serum Albumin, Fraction V, Sigma) was prepared at 10 μg/ml in 0.10 M acetate buffer (pH=4.6), in 0.10 M PBS (pH=7.4), and in 0.10 M NaHCO3 buffer (pH=9.2). Wells of each coated plate, along with uncoated controls, were aliquoted 0.50 ml each of the protein solutions. The samples were run in triplicate.
The plates were placed on a rocker table for 30 minutes at 23° C. The protein solutions were then emptied from the plates, and the wells were rinsed three times with dl H2O. Thereafter, 1.0 ml of colloidal gold stain was added to each well (see Materials and Methods). The plates were placed on a rocker table overnight, rinsed three times with dI H2O, and air dried. Absorbance at 550 nm was then read using the Cambridge Technologies Plate Reader.

[3] = tested on: HRP-Goat A'Mouse IgG; test: Enzymatic determination of protein binding to coated medium binding polystyrene plate; details: coated medium binding PS; versus uncoated high binding polystyrene plate; absorbance 405 nm
Method: The surfactants were coated onto a medium binding polystyrene plate (Corning Costar No. 2587) as described in Material and Methods. A medium binding polystyrene plate (Corning Costar No. 2587) and a high binding polystyrene plate (Corning Costar No. 2581) were used as controls.
(a) HRP-Goat A'Mouse IgG: Kirkegaard & Perry Laboratories, Inc. Catalog No. 074-1806. Stock solution: 0.5 mg/ml; working concentration: 0.04 μg/ml. The working concentration was obtained by adding 11 μl of the stock solution per 25 mls of PBS pH 7.4 to produce a work stock (WS), and then diluting 1:6 (i.e., 10 mls WS+50 mls PBS pH 7.4).
(1) 100 μl-well of HRP-Goat A'Mouse IgG at a concentration of 0.04 μg/ml were added to the test wells and incubated for 1 hour at room temperature.
(2) The wells were then washed 5 times with the 1M wash solution. Each wash include a 5 minute soak followed by decanting.
(3) 100 μl/well of substrate (30 mls ABTS+30 mls H2O2) were added to the test wells and incubated for 15 minutes at room temperature in the dark.
(4) 100 μl/well of stopping solution (1% SDS) were added to the test wells.
(5) The plates were then shaken and read at 405 nm.
(6) Reduction in binding was determined by comparing the absorbance measured in step (5) with the absorbance measured for a high binding polystyrene plate which had not been treated with a non-ionic surfactant but otherwise subjected to steps (1) to (5).

[4] = tested on: Fetal Bovine Serum (FBS); test: Polymer blends molded into petri dishes, FBS protein binding by colloidal gold
Method: Low binding non-ionic surfactant molecules were blended at 5% (except as noted in Table 13) into a base polymer using a twin screw extruder, then injection molded into the shape of 35 mm petri dishes. Proteins tested were BSA and Fetal Bovine Serum (FBS). Protein binding was determined using a colloidal gold staining procedure as described above. In the case of the polypropylene and EVA blends, a silver enhancer was used (Sigma Chem. Co., St, Louis, Mo., Kit #SE-100).

[5] = tested on: IgG; test: Coating durability using water washes, IgG binding by colloidal gold; details: for Absorbance (550 nm) Initial: coated polystyrene, no water wash; for Absorbance (550 nm) 1 Time 1 hr 23° C. / Absorbance (550 nm) 1 Time 24 hr 23° C. / Absorbance (550 nm) 1 Time 24 hr 37° C. / Absorbance (550 nm) 1 Time 24 hr 70° C.: dI H2O wash 1 time; for Absorbance (550 nm) 6 Times 30 min each 23° C.: dI H2O wash 6 times
How it was run: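 24-well polystyrene plates coated with surfactants; durability tested by water washes on a rocker. IgG incubated 30 minutes at 23° C. with rocking, then rinsed 3× with water.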

[6] = tested on: bound protein; test: Colloidal gold staining of bound protein after MDCK culture in media containing 5% FBS, visual; details: colloidal gold after cell culture, visual observation
How it was run: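 Polystyrene wells coated with non-ionic surfactants, gamma-sterilized at 1.5 Mrad, seeded with 5.6×10^4 MDCK cells per well in medium with 5% FBS and cultured 2 days at 37 °C, 5% CO2. After fixing, bound protein detected by colloidal gold staining; visual assessment only.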

[7] = tested on: MDCK cells; test: MDCK cell attachment to coated polystyrene 24-well plates; type: cell-based; details: coated PS 24-well, gamma sterilized, media with 5% FBS, two days, visual
Method: The procedures used were as follows. Polystyrene 24-well plates were coated with the non-ionic surfactants listed in Table 5 in accordance with the procedures described in Materials and Methods. Uncoated plates were used as a control. For comparison, plates with a covalently attached acrylamide coating (Corning Costar Catalog #2500) and with a stearic acid coating were also tested. The stearic acid coating was applied in the same manner as the non-ionic surfactants again using a 0.1% (w/v) solution.
The plates were gamma sterilized at 1.5 Mrad and then inoculated with 5.6×10^4 MDCK […] per well in 1 ml of complete media containing 5% FBS (Fetal Bovine Serum). Incubation was carried out at 37° C. in a 5% CO2 atmosphere for two days. The plates were fixed and stained, and cell attachment was noted. Following this, the wells were stained using the colloidal gold technique to detect bound protein. Only visual observations were made.
Experiments were also performed with cells suspended in serum. The cells used in these experiments were MDCK cells. The surfactants used were the same as used in Table 5. Again, reduced binding of the cells to surfaces treated with a non-ionic surfactant was observed.

[8] = blended at 1% into ethylene vinyl acetate
[9] = blended at 5% into ethylene vinyl acetate, silver enhancer
[10] = blended at 5% into polypropylene, silver enhancer

| Molecule | Bound Protein Absorbance at 550 nm [1] | Absorbance (550 nm) pH = 9.2 [2] | Absorbance (550 nm) pH = 7.4 [2] | Absorbance (550 nm) pH = 4.6 [2] | % Reduction in Protein Binding [3] | Bound Protein Absorbance (550 nm) FBS [4, 8] | Bound Protein Absorbance (550 nm) FBS [4, 9] | Bound Protein Absorbance (550 nm) FBS [4, 10] | Absorbance (550 nm) Initial [5] | Absorbance (550 nm) 1 Time 1 hr 23° C. [5] | Absorbance (550 nm) 1 Time 24 hr 23° C. [5] | Absorbance (550 nm) 1 Time 24 hr 37° C. [5] | Absorbance (550 nm) 1 Time 24 hr 70° C. [5] | Absorbance (550 nm) 6 Times 30 min each 23° C. [5] | Visual Color Upon Protein Staining [6] | MDCK Attachment [7] | Bound Protein Absorbance (550 nm) FBS ([4]; blended at 5% into polystyrene) |
| --- | --- | --- | --- | --- | --- | --- | --- | --- | --- | --- | --- | --- | --- | --- | --- | --- | --- |
| SORBITOL MONO-OLEATE | 0.00 | 0.00 | 0.00 | 0.00 | 92.7% | 0.371 | 0.000 | 0.000 | 0.00 | 0.00 | 0.00 | 0.00 | 0.00 | 0.00 |  |  |  |
| CCCCCCCCCCCCOCCOCCOCCOCCO [PEO(4) LAURYL ETHER] |  | 0.00 | 0.00 | 0.00 | 99.3% |  |  |  |  |  |  |  |  |  | None | None |  |
| CCCCCCCC/C=C\CCCCCCCCOCCOCCO [PEO(2) OLEYL ETHER] | 0.00 | 0.00 | 0.00 | 0.00 | 99.9% | 0.291 | 0.000 | 0.000 |  |  |  |  |  |  | None |  | 0.015 |
| PEO(4) SORBITOL MONO-STEARATE |  | 0.00 | 0.00 | 0.00 | 99.5% |  |  | 0.057 | 0.00 | 0.00 | 0.02 | 0.10 | 0.10 | 0.10 | None | None |  |
| PEO(20) SORBITOL TRI-STEARATE | 0.00 | 0.00 | 0.00 | 0.00 | 99.7% |  |  |  | 0.00 | 0.00 | 0.02 | 0.10 | 0.10 | 0.10 | None | None |  |
